# Source: patent US9119398B2, “Plant growth regulating compounds” (Syngenta Participations AG, priority 2012, dated 2015)
# Values joined by “and” are separate entries in the source; they are usually repeats but may differ in a detail not shown here. Equal entries are not always repeated.
# Experiments:
# [1] = test system: Brassica oleracea cv Botrytis (temperate cauliflower) seeds; assay: Paper germination test, temperate cauliflower seeds, 10° C. in the light; type: in vivo; conditions: 25 μM, sets A and B separate experiments
# Description: The effect of compounds of Formula (I) on the germination of Brassica oleracea cv Botrytis or common cauliflower was tested on two types of cauliflowers: temperate types and tropical types. These two types were chosen because they display different sensitivities to the light conditions and temperature during germination. Germination of a sensitive temperate type is inhibited by light at 10° C. while for the tropical types germination at 20° is stimulated by the presence of light.
# The temperate seed batches tested are part of commercially produced seed batches of various varieties which are known to be sensitive to light at 10° C. These seeds were harvested and cleaned according standard commercial procedures. Ready seed batches were used (Ready indicates the processing level of these seeds: they have been cleaned and sized but received no other treatments). The tropical seed batches tested are part of seed batches produced as basic seed (for maintenance of the parental line) and were processed accordingly.
# Germination was assessed using the standard paper germination test for Brassica: Fifty seeds were placed on blue germination paper, which was moistened with the appropriate solutions, in closed oblong germination boxes. Each condition was tested in duplo. Germination boxes were placed in controlled germination cabinets with the appropriate temperature and light conditions. Germination of seeds was counted at regular intervals. Seeds were considered to be germinated when the radical had protruded the testa and endosperm (radical size approximately 1 mm)
# Test compounds were dissolved in DMSO at a concentration of 50 mM and stored at −20° C. The strigolactone analogue GR24 (commercially available as a racemic mixture of 2 diastereoisomers, referred to as “synthetic strigolactone GR-24” and first prepared by Johnson A. W. & all, Journal of the Chemical Society, Perkin Transactions 1, 1981, page 1734-1743) was included as positive control. Germination solutions were prepared by diluting the stock solutions with demineralized water till 25 μM. As control solutions demineralized water and a 0.05% v/v DMSO solution were used.
# [2] = test system: Orobanche cumana Wallr. seeds; assay: Germination of preconditioned Orobanche cumana seeds on glass fiber filter paper in petri dishes; type: in vivo; conditions: mean, N = 5 × 100 seeds, seed lot IN153
# Description: The effect of compounds of Formula (I) on germination of Orobanche cumana Wallr. seeds was evaluated on glass fiber filter paper (GFFP) in petri dishes. Seeds were preconditioned at moisture and suitable temperature to become responsive to the specific chemical germination stimulants.
# Test compounds were dissolved in DMSO (10 000 mg l^−1) and stored at room temperature in a desiccators with desiccants. The stock solutions were dissolved with deionised water to the appropriate final test concentration.
# Seeds of O. cumana race ‘F’ (IN153) were collected from a sunflower field in Manzanilla (Seville, Spain) in 2006 and stored at room temperature. To separate seeds from heavy organic debris, a modified sucrose floatation technique as described by Hartman & Tanimonure (Plant Disease (1991), 75, p. 494) was applied. Seeds were filled into a separation funnel and stirred in water. When seeds floated to the surface, the water fraction containing heavy debris was discarded. Seeds were re-suspended in 2.5M sucrose solution (specific gravity of 1.20) and heavy debris was allowed to settle down for 60 min After removing debris, seeds were disinfected in 1% sodium hypochlorite solution and 0.025% (v/v) Tween 20 for 2 min. The seeds were decanted onto two layers of cheesecloth, rinsed with sterile deionised water and re-suspended in sterile deionised water. Two ml of the seed suspension containing approximately 150-400 seeds were spread evenly on two layers of sterile glass fiber filter paper disc ([…]) in Petri dishes (Ø9 cm). After wetting the discs with 3 ml sterile deionised water, petri dishes were sealed with parafilm. Seeds were incubated for 10 days at 20° C. in the dark for seed conditioning. The upper disc with conditioned seeds was briefly dried, transferred to a petri dish lined with a dry GFFP disc, and wetted with 6 ml of the appropriate test solution. The compounds of Formula (I) were tested at concentrations of 0.001, 0.01, 0.1, or 1 mg l^−. The strigolactone analogue GR24 was included as positive control and 0.01% DMSO as negative control. All treatments were tested in five replicates. Seeds were re-incubated at 20° C. in the dark and examined for germination 10 days later. The radicles of germinated seeds were stained for 5 min with blue ink (MIGROS, Switzerland) in 5% acetic acid according to Long et al. (Seed Science Research (2008), 18, p. 125). After staining, seeds were photographed using a camera stand mounted with a digital SLR camera (Canon EOS 5D). Germination of 100 seeds per replicate was evaluated on digital images. Seeds were considered germinated when the radicle protruded from the seed coat.
# [3] = temperate cauliflower Spacestar seed batch 11B313 (cold-sensitive)
# [4] = temperate cauliflower Spacestar seed batch 11B314 (not cold sensitive)
# [5] = Concentration 0.01 mg l^-1, 10 days at 20° C. in the dark
# [6] = Concentration 0.01 mg l^-1 as printed, 10 days at 20° C. in the dark
# [7] = Concentration 1 mg l^-1, 10 days at 20° C. in the dark
# [8] = Table B1, concentration 0.001 mg 1^−1, DMSO control 0.4% germination
# [9] = Table B1, concentration 0.1 mg 1^−1, DMSO control 0.4% germination
# [10] = Table B1, concentration 1 mg 1^−1, DMSO control 0.4% germination
# [11] = Table B3, concentration 0.001 mg 1^−1, DMSO control 0% germination
# [12] = Table B3, concentration 0.01 mg 1^−1, DMSO control 0% germination
# [13] = Table B3, concentration 0.1 mg 1^−1, DMSO control 0% germination
# [14] = Table B5, concentration 0.01 mg 1^−1 (second column), DMSO control 1.4% germination
# [15] = Table B5, concentration 0.01 mg 1^−1 (third column), DMSO control 1.4% germination
# [16] = Table B5, concentration 1 mg 1^−1, DMSO control 1.4% germination
smiles,measurement,setting,value
"CC1=C[C@H](O/C=C2/C(=O)O[C@@H]3c4ccccc4C[C@H]23)OC1=O (mixture of isomers) [GR-24, reference compound]","Gmax (%), total germination as percentage of sown seeds",[1]; [3],71.5% and 80.0%
same,"Gmax (%), total germination as percentage of sown seeds",[1]; [4],93.5% and 93.0%
same,"stimulation (%), extra germination compared to the DMSO treatment, as percentage of the germination in the DMSO treatment",[1]; [4],3.3% and 8.1%
same,Germination (%),[2]; [5],88%
same,Germination (%),[2]; [6],86.6%
same,Germination (%),[2]; [7],95.2%
same,Germination (%),[2]; [8],24.8%
same,Germination (%),[2]; [9],47.2%
same,Germination (%),[2]; [10],80.2%
same,Germination (%),"[2]; Table B2, concentration 0.01 mg 1^−1, DMSO control 2.4% germination",12.2%
same,Germination (%),"[2]; Table B2, concentration 0.1 mg 1^−1, DMSO control 2.4% germination",46.4%
same,Germination (%),"[2]; Table B2, concentration 1 mg 1^−1, DMSO control 2.4% germination",85.2%
same,Germination (%),[2]; [11],26%
same,Germination (%),[2]; [12],51%
same,Germination (%),[2]; [13],84.2%
same,Germination (%),[2]; [14],78.4%
same,Germination (%),[2]; [15],65%
same,Germination (%),[2]; [16],86.6%
same,Germination (%),"[2]; Table B6, concentration 0.001 mg 1^−1, DMSO control 2.4% germination",23.0%
same,Germination (%),"[2]; Table B6, concentration 0.1 mg 1^−1, DMSO control 2.4% germination",43.2%
same,Germination (%),"[2]; Table B6, concentration 1 mg 1^−1, DMSO control 2.4% germination",58.1%
"CC1=CC(O/C=C2/C(=O)NC3C=CCC23)OC1=O (stereo not shown) [Ia-1, (3E)-3-[(4-methyl-5-oxo-2H-furan-2-yl)oxymethylene]-1,3a,4,6a-tetrahydrocyclopenta[b]pyrrol-2-one]","Gmax (%), total germination as percentage of sown seeds",[1]; [3],72.0%
same,"stimulation (%), extra germination compared to the DMSO treatment, as percentage of the germination in the DMSO treatment",[1]; [3],20.0%
same,"Gmax (%), total germination as percentage of sown seeds",[1]; [4],96.5%
same,"stimulation (%), extra germination compared to the DMSO treatment, as percentage of the germination in the DMSO treatment",[1]; [4],6.6%
same,Germination (%),[2]; [8],1.4%
same,Germination (%),[2]; [9],24.6%
same,Germination (%),[2]; [10],23.2%
"CC1=CC(O/C=C2\CCNC2=O)OC1=O (stereo not shown) [Ia-8, (3E)-3-[(4-methyl-5-oxo-2H-furan-2-yl)oxymethylene]pyrrolidin-2-one]","Gmax (%), total germination as percentage of sown seeds",[1]; [3],77.0%
same,"stimulation (%), extra germination compared to the DMSO treatment, as percentage of the germination in the DMSO treatment",[1]; [3],42.6%
same,"Gmax (%), total germination as percentage of sown seeds",[1]; [4],93.0%
same,"stimulation (%), extra germination compared to the DMSO treatment, as percentage of the germination in the DMSO treatment",[1]; [4],8.1%
"CC1=CC(O/C=C2\CCCCNC2=O)OC1=O (stereo not shown) [Ia-13, (3E)-3-[(4-methyl-5-oxo-2H-furan-2-yl)oxymethylene]azepan-2-one]","Gmax (%), total germination as percentage of sown seeds",[1]; [3],42.3%
same,"stimulation (%), extra germination compared to the DMSO treatment, as percentage of the germination in the DMSO treatment",[1]; [3],−21.8%
same,"Gmax (%), total germination as percentage of sown seeds",[1]; [4],92.5%
same,"stimulation (%), extra germination compared to the DMSO treatment, as percentage of the germination in the DMSO treatment",[1]; [4],7.6%
same,Germination (%),[2]; [14],34.2%
same,Germination (%),[2]; [15],25.6%
same,Germination (%),[2]; [16],70%
"CC1=CC(O/C=C2\CCC(c3ccccc3)N(C(=O)OC(C)(C)C)C2=O)OC1=O (stereo not shown) [Ib-12, tert-butyl (3E)-3-[(4-methyl-5-oxo-2H-furan-2-yl)oxymethylene]-2-oxo-6-phenyl-piperidine-1-carboxylate]",Germination (%),[2]; [11],91%
same,Germination (%),[2]; [12],89%
same,Germination (%),[2]; [13],90.2%
"CC1=CC(O/C=C2\CCCCN(C(=O)OC(C)(C)C)C2=O)OC1=O (stereo not shown) [Ib-13, tert-butyl (3E)-3-[(4-methyl-5-oxo-2H-furan-2-yl)oxymethylene]-2-oxo-azepane-1-carboxylate]",Germination (%),[2]; [5],48%
same,Germination (%),[2]; [6],83%
same,Germination (%),[2]; [7],90.8%
"CC1=CC(O/C=C2\CCCCN(c3ccccc3)C2=O)OC1=O (stereo not shown) [Ic-13, (3E)-3-[(4-methyl-5-oxo-2H-furan-2-yl)oxymethylene]-1-phenyl-azepan-2-one]",melting point,,150 to 160 °C
